PubChem BioAssay (NCI)
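Grown in 96-well plates, cells were treated for 48 hours with each compound at five concentrations. Insufficient inhibition: endpoint recorded as highest concentration tested. TGI marks complete inhibition of growth.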

Columns and labels:
Experiment in all cases: NCI anticancer screen, dose series, 48 h
SK-OV-3 ovarian = test system: SK-OV-3 ovarian
IGROV1 ovarian = test system: IGROV1 ovarian
NCI-H23 lung = test system: NCI-H23 lung
CCRF-CEM leukemia = test system: CCRF-CEM leukemia
HCC-2998 colon = test system: HCC-2998 colon
HCT-15 colon = test system: HCT-15 colon
MDA-MB-231 breast = test system: MDA-MB-231 breast
UO-31 renal = test system: UO-31 renal
SF-295 CNS = test system: SF-295 CNS
ACHN renal = test system: ACHN renal
KM12 colon = test system: KM12 colon
U251 CNS = test system: U251 CNS
TK-10 renal = test system: TK-10 renal
786-0 renal = test system: 786-0 renal
HT29 colon = test system: HT29 colon
K-562 leukemia = test system: K-562 leukemia
SNB-19 CNS = test system: SNB-19 CNS
A549 NSCLC = test system: A549 NSCLC
MDA-MB-435 = test system: MDA-MB-435
RPMI-8226 leukemia = test system: RPMI-8226 leukemia
SN12C renal = test system: SN12C renal
OVCAR-8 ovarian = test system: OVCAR-8 ovarian
MOLT-4 leukemia = test system: MOLT-4 leukemia
MALME-3M melanoma = test system: MALME-3M melanoma
OVCAR-3 ovarian = test system: OVCAR-3 ovarian
RXF 393 renal = test system: RXF 393 renal
SK-MEL-2 melanoma = test system: SK-MEL-2 melanoma
OVCAR-4 ovarian = test system: OVCAR-4 ovarian
M14 melanoma = test system: M14 melanoma
UACC-257 melanoma = test system: UACC-257 melanoma
EKVX NSCLC = test system: EKVX NSCLC
MCF7 breast = test system: MCF7 breast
HOP-62 NSCLC = test system: HOP-62 NSCLC
DU-145 prostate = test system: DU-145 prostate
MDA-N = test system: MDA-N
BT-549 breast = test system: BT-549 breast
SF-268 CNS = test system: SF-268 CNS
PC-3 prostate = test system: PC-3 prostate
NCI-H460 lung = test system: NCI-H460 lung
CAKI-1 renal = test system: CAKI-1 renal
A498 renal = test system: A498 renal
SK-MEL-5 melanoma = test system: SK-MEL-5 melanoma
NCI-H226 lung = test system: NCI-H226 lung
COLO 205 colon = test system: COLO 205 colon
HCT-116 colon = test system: HCT-116 colon
NCI/ADR-RES ovarian = test system: NCI/ADR-RES ovarian
SNB-75 CNS = test system: SNB-75 CNS
HOP-92 NSCLC = test system: HOP-92 NSCLC
UACC-62 melanoma = test system: UACC-62 melanoma
SW-620 colon = test system: SW-620 colon
SF-539 CNS = test system: SF-539 CNS
LOX IMVI melanoma = test system: LOX IMVI melanoma
T-47D breast = test system: T-47D breast
HS 578T breast = test system: HS 578T breast
NCI-H522 lung = test system: NCI-H522 lung
OVCAR-5 ovarian = test system: OVCAR-5 ovarian
SR leukemia = test system: SR leukemia

SMILES: Nc1nc(Cl)cc(Nc2cc(Cl)cc(Cl)c2)n1
- TGI (SK-OV-3 ovarian): 35.8 µM
- TGI (IGROV1 ovarian): 35.4 µM
- TGI (NCI-H23 lung): 48.6 µM
- TGI (CCRF-CEM leukemia): 51.7 µM
- TGI (HCC-2998 colon): 32.8 µM
- TGI (HCT-15 colon): 42.6 µM
- TGI (MDA-MB-231 breast): 36.3 µM
- TGI (UO-31 renal): 36.5 µM
- TGI (SF-295 CNS): 38.4 µM
- TGI (ACHN renal): 56.8 µM
- TGI (KM12 colon): 37.7 µM
- TGI (U251 CNS): 38.4 µM
- TGI (TK-10 renal): 45 µM
- TGI (786-0 renal): 33.7 µM
- TGI (HT29 colon): 30.6 µM
- TGI (K-562 leukemia): 81.3 µM
- TGI (SNB-19 CNS): 47.5 µM
- TGI (A549 NSCLC): 58.9 µM
- TGI (MDA-MB-435): 37.1 µM
- TGI (RPMI-8226 leukemia): 66.3 µM
- TGI (SN12C renal): 40.7 µM
- TGI (OVCAR-8 ovarian): 28.3 µM
- TGI (MOLT-4 leukemia): 47.6 µM
- TGI (MALME-3M melanoma): 37.8 µM
- TGI (OVCAR-3 ovarian): 48.6 µM
- TGI (RXF 393 renal): 38.3 µM
- TGI (SK-MEL-2 melanoma): 38.1 µM
- TGI (OVCAR-4 ovarian): 46.6 µM
- TGI (M14 melanoma): 35.4 µM
- TGI (UACC-257 melanoma): 32.8 µM
- TGI (EKVX NSCLC): 45.7 µM
- TGI (MCF7 breast): 41.6 µM
- TGI (HOP-62 NSCLC): 55.1 µM
- TGI (DU-145 prostate): 47.3 µM
- TGI (MDA-N): 48.8 µM
- TGI (BT-549 breast): 45.4 µM
- TGI (SF-268 CNS): 40.4 µM
- TGI (PC-3 prostate): 41.5 µM
- TGI (NCI-H460 lung): 32.1 µM
- TGI (CAKI-1 renal): 48.2 µM
- TGI (A498 renal): 44.3 µM
- TGI (SK-MEL-5 melanoma): 33.9 µM
- TGI (NCI-H226 lung): 40.8 µM
- TGI (COLO 205 colon): 41.4 µM
- TGI (HCT-116 colon): 33.3 µM
- TGI (NCI/ADR-RES ovarian): 44 µM
- TGI (SNB-75 CNS): 39.5 µM
- TGI (HOP-92 NSCLC): 40.3 µM
- TGI (UACC-62 melanoma): 33.5 µM
- TGI (SW-620 colon): 41.1 µM
- TGI (SF-539 CNS): 33.9 µM
- TGI (LOX IMVI melanoma): 32.3 µM
- TGI (T-47D breast): 98.9 µM
- TGI (HS 578T breast): 41.1 µM
- TGI (NCI-H522 lung): 24.3 µM
- TGI (OVCAR-5 ovarian): 76.7 µM

SMILES: CCC1C(c2cc(OC)c(OC)c(OC)c2)c2cc3c(cc2OC1N1CCOCC1)OCO3 (centres undefined)
- TGI (SK-OV-3 ovarian): 23.4 µM
- TGI (IGROV1 ovarian): 17.4 µM
- TGI (HCT-15 colon): > 100 µM
- TGI (MDA-MB-231 breast): 61.9 µM
- TGI (UO-31 renal): 17.5 µM
- TGI (SF-295 CNS): 8.52 µM
- TGI (ACHN renal): 16.1 µM
- TGI (786-0 renal): 28.8 µM
- TGI (HT29 colon): 7.36 µM
- TGI (SNB-19 CNS): 25 µM
- TGI (A549 NSCLC): 17.8 µM
- TGI (SN12C renal): 28.6 µM
- TGI (OVCAR-8 ovarian): 17.6 µM
- TGI (SR leukemia): > 100 µM
- TGI (MALME-3M melanoma): 52.6 µM
- TGI (OVCAR-3 ovarian): 18.7 µM
- TGI (SK-MEL-2 melanoma): > 100 µM
- TGI (OVCAR-4 ovarian): 14.6 µM
- TGI (M14 melanoma): 23.7 µM
- TGI (UACC-257 melanoma): 55.5 µM
- TGI (EKVX NSCLC): 54.1 µM
- TGI (MCF7 breast): 15.5 µM
- TGI (HOP-62 NSCLC): 20.6 µM
- TGI (DU-145 prostate): 28.9 µM
- TGI (MDA-N): 3.83 µM
- TGI (BT-549 breast): 22 µM
- TGI (SF-268 CNS): 41.5 µM
- TGI (PC-3 prostate): 14.1 µM
- TGI (NCI-H460 lung): 12.3 µM
- TGI (SK-MEL-5 melanoma): 6.38 µM
- TGI (NCI-H226 lung): 27.6 µM
- TGI (COLO 205 colon): 22.4 µM
- TGI (HCT-116 colon): 13.4 µM
- TGI (NCI/ADR-RES ovarian): > 100 µM
- TGI (SNB-75 CNS): 26.3 µM
- TGI (HOP-92 NSCLC): 41 µM
- TGI (UACC-62 melanoma): 24.7 µM
- TGI (SW-620 colon): 10.3 µM
- TGI (LOX IMVI melanoma): 10.5 µM
- TGI (T-47D breast): 61.8 µM
- TGI (HS 578T breast): 28.9 µM
- TGI (NCI-H522 lung): 21.8 µM
- TGI (OVCAR-5 ovarian): 15.6 µM
